# Test system: Mannheimia haemolytica MH 6357 (M7/2, reference strain, cattle infection strain)
# Experiment: MIC, broth-microdilution (CLSI VET01-A4), strain MH 6357
# Format: cell-based
# Settings: Mannheimia haemolytica strain MH 6357, broth-microdilution; unit assumed
# Summary of the method: (§1)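 Visual endpoint: the first dilution of a doubling series lacking turbidity gives the MIC; CLSI VET01-S3 interpretive rules applied.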
row,SMILES,MIC MH 6357
1,CC(C)[C@H](NC(=O)c1ccc(C#Cc2cccc(CNCc3ccncc3)c2)cc1)C(=O)NO [Compound 46],6.3 µg/mL
2,CN(C)c1ccc(CNCc2ccc(C#Cc3ccc(C(=O)N[C@@H](CO)C(=O)NO)cc3)cc2)cc1 [Compound 134],25 µg/mL
3,CC(C)[C@H](NC(=O)c1ccc(C#Cc2cccc(CNCC(C)(C)C)c2)cc1)C(=O)NO [Compound 27],12.5 µg/mL
4,COCCNCc1ccc(C#Cc2ccc(C(=O)N[C@@H](CO)C(=O)NO)cc2)cc1 [Compound 74],3.1 µg/mL
5,CC[C@H](C)[C@H](NC(=O)c1ccc(C#Cc2ccc(CNCc3ccccc3)cc2)cc1)C(=O)NO [Compound 126],3.1 µg/mL
6,CC[C@H](C)[C@H](NC(=O)c1ccc(C#Cc2ccc(CNCc3nccs3)cc2)cc1)C(=O)NO [Compound 188],0.8 µg/mL
7,CC[C@H](C)[C@H](NC(=O)c1ccc(C#Cc2ccc(CNCC(C)(C)C)cc2)cc1)C(=O)NO [Compound 114],6.3 µg/mL
8,COc1ccc(CNCc2ccc(C#Cc3ccc(C(=O)N[C@@H](CO)C(=O)NO)cc3)cc2)cc1 [Compound 88],6.3 µg/mL

# Test system: Mannheimia haemolytica MH 6374 (ATCC 33396, reference strain)
# Experiment: MIC, broth-microdilution (CLSI VET01-A4), strain MH 6374
# Format: cell-based
# Settings: Mannheimia haemolytica strain MH 6374, broth-microdilution; unit assumed
# Summary of the method: as §1
row,SMILES,MIC MH 6374
1,CC(C)[C@H](NC(=O)c1ccc(C#Cc2cccc(CNCc3ccncc3)c2)cc1)C(=O)NO [Compound 46],6.3 µg/mL
2,CN(C)c1ccc(CNCc2ccc(C#Cc3ccc(C(=O)N[C@@H](CO)C(=O)NO)cc3)cc2)cc1 [Compound 134],6.3 µg/mL
3,CC(C)[C@H](NC(=O)c1ccc(C#Cc2cccc(CNCC(C)(C)C)c2)cc1)C(=O)NO [Compound 27],12.5 µg/mL
4,COCCNCc1ccc(C#Cc2ccc(C(=O)N[C@@H](CO)C(=O)NO)cc2)cc1 [Compound 74],3.1 µg/mL
5,CC[C@H](C)[C@H](NC(=O)c1ccc(C#Cc2ccc(CNCc3ccccc3)cc2)cc1)C(=O)NO [Compound 126],1.6 µg/mL
6,CC[C@H](C)[C@H](NC(=O)c1ccc(C#Cc2ccc(CNCc3nccs3)cc2)cc1)C(=O)NO [Compound 188],1.6 µg/mL
7,CC[C@H](C)[C@H](NC(=O)c1ccc(C#Cc2ccc(CNCC(C)(C)C)cc2)cc1)C(=O)NO [Compound 114],12.5 µg/mL
8,COc1ccc(CNCc2ccc(C#Cc3ccc(C(=O)N[C@@H](CO)C(=O)NO)cc3)cc2)cc1 [Compound 88],1.6 µg/mL

# Test system: Mannheimia haemolytica MH 10720 (154, BRD field isolate)
# Experiment: MIC, broth-microdilution (CLSI VET01-A4), strain MH 10720
# Format: cell-based
# Settings: Mannheimia haemolytica strain MH 10720, broth-microdilution; unit assumed
# Summary of the method: as §1
row,SMILES,MIC MH 10720
1,CC(C)[C@H](NC(=O)c1ccc(C#Cc2cccc(CNCc3ccncc3)c2)cc1)C(=O)NO [Compound 46],1.6 µg/mL
2,CN(C)c1ccc(CNCc2ccc(C#Cc3ccc(C(=O)N[C@@H](CO)C(=O)NO)cc3)cc2)cc1 [Compound 134],6.3 µg/mL
3,CC(C)[C@H](NC(=O)c1ccc(C#Cc2cccc(CNCC(C)(C)C)c2)cc1)C(=O)NO [Compound 27],3.1 µg/mL
4,COCCNCc1ccc(C#Cc2ccc(C(=O)N[C@@H](CO)C(=O)NO)cc2)cc1 [Compound 74],3.1 µg/mL
5,CC[C@H](C)[C@H](NC(=O)c1ccc(C#Cc2ccc(CNCc3ccccc3)cc2)cc1)C(=O)NO [Compound 126],0.4 µg/mL
6,CC[C@H](C)[C@H](NC(=O)c1ccc(C#Cc2ccc(CNCc3nccs3)cc2)cc1)C(=O)NO [Compound 188],≤ 0.1 µg/mL
7,CC[C@H](C)[C@H](NC(=O)c1ccc(C#Cc2ccc(CNCC(C)(C)C)cc2)cc1)C(=O)NO [Compound 114],1.6 µg/mL
8,COc1ccc(CNCc2ccc(C#Cc3ccc(C(=O)N[C@@H](CO)C(=O)NO)cc3)cc2)cc1 [Compound 88],1.6 µg/mL

# Test system: Mannheimia haemolytica MH 12587 (1071, BRD field isolate, macrolide-resistance: erm+, E+)
# Experiment: MIC, broth-microdilution (CLSI VET01-A4), strain MH 12587
# Format: cell-based
# Settings: Mannheimia haemolytica strain MH 12587, broth-microdilution; unit assumed
# Summary of the method: as §1
row,SMILES,MIC MH 12587
1,CC(C)[C@H](NC(=O)c1ccc(C#Cc2cccc(CNCc3ccncc3)c2)cc1)C(=O)NO [Compound 46],12.5 µg/mL
2,CN(C)c1ccc(CNCc2ccc(C#Cc3ccc(C(=O)N[C@@H](CO)C(=O)NO)cc3)cc2)cc1 [Compound 134],12.5 µg/mL
3,CC(C)[C@H](NC(=O)c1ccc(C#Cc2cccc(CNCC(C)(C)C)c2)cc1)C(=O)NO [Compound 27],25 µg/mL
4,COCCNCc1ccc(C#Cc2ccc(C(=O)N[C@@H](CO)C(=O)NO)cc2)cc1 [Compound 74],12.5 µg/mL
5,CC[C@H](C)[C@H](NC(=O)c1ccc(C#Cc2ccc(CNCc3ccccc3)cc2)cc1)C(=O)NO [Compound 126],1.6 µg/mL
6,CC[C@H](C)[C@H](NC(=O)c1ccc(C#Cc2ccc(CNCc3nccs3)cc2)cc1)C(=O)NO [Compound 188],3.1 µg/mL
7,CC[C@H](C)[C@H](NC(=O)c1ccc(C#Cc2ccc(CNCC(C)(C)C)cc2)cc1)C(=O)NO [Compound 114],12.5 µg/mL
8,COc1ccc(CNCc2ccc(C#Cc3ccc(C(=O)N[C@@H](CO)C(=O)NO)cc3)cc2)cc1 [Compound 88],6.3 µg/mL

# Test system: Mannheimia haemolytica MH 13065 (XB0446-6003.9, BRD field isolate)
# Experiment: MIC, broth-microdilution (CLSI VET01-A4), strain MH 13065
# Format: cell-based
# Settings: Mannheimia haemolytica strain MH 13065, broth-microdilution; unit assumed
# Summary of the method: as §1
row,SMILES,MIC MH 13065
1,CC(C)[C@H](NC(=O)c1ccc(C#Cc2cccc(CNCc3ccncc3)c2)cc1)C(=O)NO [Compound 46],6.3 µg/mL
2,CN(C)c1ccc(CNCc2ccc(C#Cc3ccc(C(=O)N[C@@H](CO)C(=O)NO)cc3)cc2)cc1 [Compound 134],12.5 µg/mL
3,CC(C)[C@H](NC(=O)c1ccc(C#Cc2cccc(CNCC(C)(C)C)c2)cc1)C(=O)NO [Compound 27],25 µg/mL
4,COCCNCc1ccc(C#Cc2ccc(C(=O)N[C@@H](CO)C(=O)NO)cc2)cc1 [Compound 74],6.3 µg/mL
5,CC[C@H](C)[C@H](NC(=O)c1ccc(C#Cc2ccc(CNCc3ccccc3)cc2)cc1)C(=O)NO [Compound 126],1.6 µg/mL
6,CC[C@H](C)[C@H](NC(=O)c1ccc(C#Cc2ccc(CNCc3nccs3)cc2)cc1)C(=O)NO [Compound 188],0.8 µg/mL
7,CC[C@H](C)[C@H](NC(=O)c1ccc(C#Cc2ccc(CNCC(C)(C)C)cc2)cc1)C(=O)NO [Compound 114],6.3 µg/mL
8,COc1ccc(CNCc2ccc(C#Cc3ccc(C(=O)N[C@@H](CO)C(=O)NO)cc3)cc2)cc1 [Compound 88],3.1 µg/mL

# Test system: Mannheimia haemolytica MH 13093 (XB0472-6014.1, BRD field isolate)
# Experiment: MIC, broth-microdilution (CLSI VET01-A4), strain MH 13093
# Format: cell-based
# Settings: Mannheimia haemolytica strain MH 13093, broth-microdilution; unit assumed
# Summary of the method: as §1
row,SMILES,MIC MH 13093
1,CC(C)[C@H](NC(=O)c1ccc(C#Cc2cccc(CNCc3ccncc3)c2)cc1)C(=O)NO [Compound 46],6.3 µg/mL
2,CN(C)c1ccc(CNCc2ccc(C#Cc3ccc(C(=O)N[C@@H](CO)C(=O)NO)cc3)cc2)cc1 [Compound 134],25 µg/mL
3,CC(C)[C@H](NC(=O)c1ccc(C#Cc2cccc(CNCC(C)(C)C)c2)cc1)C(=O)NO [Compound 27],25 µg/mL
4,COCCNCc1ccc(C#Cc2ccc(C(=O)N[C@@H](CO)C(=O)NO)cc2)cc1 [Compound 74],12.5 µg/mL
5,CC[C@H](C)[C@H](NC(=O)c1ccc(C#Cc2ccc(CNCc3ccccc3)cc2)cc1)C(=O)NO [Compound 126],1.6 µg/mL
6,CC[C@H](C)[C@H](NC(=O)c1ccc(C#Cc2ccc(CNCc3nccs3)cc2)cc1)C(=O)NO [Compound 188],0.8 µg/mL
7,CC[C@H](C)[C@H](NC(=O)c1ccc(C#Cc2ccc(CNCC(C)(C)C)cc2)cc1)C(=O)NO [Compound 114],6.3 µg/mL
8,COc1ccc(CNCc2ccc(C#Cc3ccc(C(=O)N[C@@H](CO)C(=O)NO)cc3)cc2)cc1 [Compound 88],12.5 µg/mL

# Test system: Pasteurella multocida PM 6267 (P 2225 (L386), reference strain, mouse infection strain)
# Experiment: MIC, broth-microdilution (CLSI VET01-A4), strain PM 6267
# Format: cell-based
# Settings: Pasteurella multocida strain PM 6267, broth-microdilution; unit assumed
# Summary of the method: as §1
row,SMILES,MIC PM 6267
1,CC(C)[C@H](NC(=O)c1ccc(C#Cc2cccc(CNCc3ccncc3)c2)cc1)C(=O)NO [Compound 46],1.6 µg/mL
2,CN(C)c1ccc(CNCc2ccc(C#Cc3ccc(C(=O)N[C@@H](CO)C(=O)NO)cc3)cc2)cc1 [Compound 134],0.8 µg/mL
3,CC(C)[C@H](NC(=O)c1ccc(C#Cc2cccc(CNCC(C)(C)C)c2)cc1)C(=O)NO [Compound 27],3.1 µg/mL
4,COCCNCc1ccc(C#Cc2ccc(C(=O)N[C@@H](CO)C(=O)NO)cc2)cc1 [Compound 74],0.8 µg/mL
5,CC[C@H](C)[C@H](NC(=O)c1ccc(C#Cc2ccc(CNCc3ccccc3)cc2)cc1)C(=O)NO [Compound 126],0.4 µg/mL
6,CC[C@H](C)[C@H](NC(=O)c1ccc(C#Cc2ccc(CNCc3nccs3)cc2)cc1)C(=O)NO [Compound 188],≤ 0.1 µg/mL
7,CC[C@H](C)[C@H](NC(=O)c1ccc(C#Cc2ccc(CNCC(C)(C)C)cc2)cc1)C(=O)NO [Compound 114],0.2 µg/mL
8,COc1ccc(CNCc2ccc(C#Cc3ccc(C(=O)N[C@@H](CO)C(=O)NO)cc3)cc2)cc1 [Compound 88],0.2 µg/mL

# Test system: Pasteurella multocida PM 10775 (080130003051, BRD field isolate)
# Experiment: MIC, broth-microdilution (CLSI VET01-A4), strain PM 10775
# Format: cell-based
# Settings: Pasteurella multocida strain PM 10775, broth-microdilution; unit assumed
# Summary of the method: as §1
row,SMILES,MIC PM 10775
1,CC(C)[C@H](NC(=O)c1ccc(C#Cc2cccc(CNCc3ccncc3)c2)cc1)C(=O)NO [Compound 46],0.2 µg/mL
2,CN(C)c1ccc(CNCc2ccc(C#Cc3ccc(C(=O)N[C@@H](CO)C(=O)NO)cc3)cc2)cc1 [Compound 134],≤ 0.1 µg/mL
3,CC(C)[C@H](NC(=O)c1ccc(C#Cc2cccc(CNCC(C)(C)C)c2)cc1)C(=O)NO [Compound 27],0.8 µg/mL
4,COCCNCc1ccc(C#Cc2ccc(C(=O)N[C@@H](CO)C(=O)NO)cc2)cc1 [Compound 74],≤ 0.1 µg/mL
5,CC[C@H](C)[C@H](NC(=O)c1ccc(C#Cc2ccc(CNCc3ccccc3)cc2)cc1)C(=O)NO [Compound 126],≤ 0.1 µg/mL
6,CC[C@H](C)[C@H](NC(=O)c1ccc(C#Cc2ccc(CNCc3nccs3)cc2)cc1)C(=O)NO [Compound 188],≤ 0.1 µg/mL
7,CC[C@H](C)[C@H](NC(=O)c1ccc(C#Cc2ccc(CNCC(C)(C)C)cc2)cc1)C(=O)NO [Compound 114],≤ 0.1 µg/mL
8,COc1ccc(CNCc2ccc(C#Cc3ccc(C(=O)N[C@@H](CO)C(=O)NO)cc3)cc2)cc1 [Compound 88],≤ 0.1 µg/mL

# Test system: Pasteurella multocida PM 12080 (IV102277-0093, BRD field isolate)
# Experiment: MIC, broth-microdilution (CLSI VET01-A4), strain PM 12080
# Format: cell-based
# Settings: Pasteurella multocida strain PM 12080, broth-microdilution; unit assumed
# Summary of the method: as §1
row,SMILES,MIC PM 12080
1,CC(C)[C@H](NC(=O)c1ccc(C#Cc2cccc(CNCc3ccncc3)c2)cc1)C(=O)NO [Compound 46],6.3 µg/mL
2,CN(C)c1ccc(CNCc2ccc(C#Cc3ccc(C(=O)N[C@@H](CO)C(=O)NO)cc3)cc2)cc1 [Compound 134],3.1 µg/mL
3,CC(C)[C@H](NC(=O)c1ccc(C#Cc2cccc(CNCC(C)(C)C)c2)cc1)C(=O)NO [Compound 27],6.3 µg/mL
4,COCCNCc1ccc(C#Cc2ccc(C(=O)N[C@@H](CO)C(=O)NO)cc2)cc1 [Compound 74],3.1 µg/mL
5,CC[C@H](C)[C@H](NC(=O)c1ccc(C#Cc2ccc(CNCc3ccccc3)cc2)cc1)C(=O)NO [Compound 126],0.8 µg/mL
6,CC[C@H](C)[C@H](NC(=O)c1ccc(C#Cc2ccc(CNCc3nccs3)cc2)cc1)C(=O)NO [Compound 188],≤ 0.1 µg/mL
7,CC[C@H](C)[C@H](NC(=O)c1ccc(C#Cc2ccc(CNCC(C)(C)C)cc2)cc1)C(=O)NO [Compound 114],0.8 µg/mL
8,COc1ccc(CNCc2ccc(C#Cc3ccc(C(=O)N[C@@H](CO)C(=O)NO)cc3)cc2)cc1 [Compound 88],1.6 µg/mL

# — US11034650B2, “Compounds useful for treating a Mannheimia haemolytica or Histophilus somni infection” (Intervet Inc., priority 2016, dated 2021)
